From PubChem BioAssay AID256 (DTP/NCI, 2004)
Toxic doses and inconclusive results are not listed.

Test system: CD2F1 mice, L1210 leukemia ip, survival T/C
Experiment: NCI In Vivo Anticancer Drug Screen. Data for tumor model L1210 Leukemia (intraperitoneal) in CD2F1 (CDF1) mice
Conditions: higher = longer survival
In short: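 Vehicle-treated tumor-bearing mice served as controls (C) for compound-treated mice (T). Reported figure is T divided by C.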

[1] = endpoint: mean survival time, dose: 100.0 mg/kg/injection, schedule: Q04DX002 (ip), vehicle: saline with Tween-80
[2] = endpoint: mean survival time, dose: 200.0 mg/kg/injection, schedule: Q04DX002 (ip), vehicle: saline with Tween-80
[3] = endpoint: mean survival time, dose: 100.0 mg/kg/injection, schedule: Q01DX009 (ip), vehicle: saline with Tween-80
[4] = endpoint: mean survival time, dose: 200.0 mg/kg/injection, schedule: Q01DX009 (ip), vehicle: saline with Tween-80
[5] = endpoint: mean survival time, dose: 400.0 mg/kg/injection, schedule: Q01DX009 (ip), vehicle: saline with Tween-80
[6] = endpoint: mean survival time, dose: 100.0 mg/kg/injection, schedule: Q01DX001 (ip), vehicle: saline
[7] = endpoint: mean survival time, dose: 200.0 mg/kg/injection, schedule: Q01DX001 (ip), vehicle: saline
[8] = endpoint: mean survival time, dose: 400.0 mg/kg/injection, schedule: Q01DX001 (ip), vehicle: saline
[9] = endpoint: mean survival time, dose: 100.0 mg/kg/injection, schedule: Q04DX003 (ip), vehicle: saline with Tween-80
[10] = endpoint: mean survival time, dose: 200.0 mg/kg/injection, schedule: Q04DX003 (ip), vehicle: saline with Tween-80
[11] = endpoint: mean survival time, dose: 400.0 mg/kg/injection, schedule: Q04DX003 (ip), vehicle: saline with Tween-80

`CCOCCN=C(N)C(N)=NCCOCC` was tested, and the T/C (endpoint: mean survival time, dose: 50.0 mg/kg/injection, schedule: Q04DX002 (ip), vehicle: saline with Tween-80) was 102 % of control, the T/C [1] was 98 % of control and the T/C [2] was 94 % of control. For the same compound, the T/C (endpoint: mean survival time, dose: 400.0 mg/kg/injection, schedule: Q04DX002 (ip), vehicle: saline with Tween-80) was 94 % of control.

With `CCCCCCCCCCCCNC1=CC(=O)c2nccnc2C1=O` the T/C (endpoint: mean survival time, dose: 6.25 mg/kg/injection, schedule: Q01DX009 (ip), vehicle: saline with Tween-80) was 98 % of control, the T/C (endpoint: mean survival time, dose: 12.5 mg/kg/injection, schedule: Q01DX009 (ip), vehicle: saline with Tween-80) was 95 % of control and the T/C (endpoint: mean survival time, dose: 25.0 mg/kg/injection, schedule: Q01DX009 (ip), vehicle: saline with Tween-80) was 91 % of control. The T/C (endpoint: mean survival time, dose: 50.0 mg/kg/injection, schedule: Q01DX009 (ip), vehicle: saline with Tween-80) was 91 % of control and the T/C [3] was 95 % of control.

With `Cc1ccc(NC(=O)N(CCCl)N=O)cc1Cl` the T/C (endpoint: mean survival time, dose: 13.0 mg/kg/injection, schedule: Q01DX001 (ip), vehicle: carboxymethylcellulose (CMC)) was 176 % of control.

In the case of `COC(=O)C(O)c1ccc2c(c1)OCO2` (centres undefined), the T/C [3] is reported as 97 % of control, the T/C [4] is reported as 90 % of control and the T/C [5] is reported as 90 % of control.

With `O=C(O)C(CSC(c1ccccc1)(c1ccccc1)c1ccccc1)NC(c1ccccc1)(c1ccccc1)c1ccccc1` (centres undefined) the T/C (endpoint: mean survival time, dose: 75.0 mg/kg/injection, schedule: Q01DX001 (ip), vehicle: other) was 97 % of control.

For `Cn1c(C(O)c2cccnc2)c(CN2CCCCC2)c2ccccc21` (centres undefined), the T/C (endpoint: mean survival time, dose: 100.0 mg/kg/injection, schedule: Q01DX001 (ip), vehicle: saline with Tween-80) was 97 % of control and the T/C (endpoint: mean survival time, dose: 200.0 mg/kg/injection, schedule: Q01DX001 (ip), vehicle: saline with Tween-80) was 94 % of control.

For `CCOCCC#N`, the T/C (endpoint: mean survival time, dose: 50.0 mg/kg/injection, schedule: Q01DX009 (ip), vehicle: Klucel (hydroxypropylcellulose) (HPC)) was 102 % of control, the T/C (endpoint: mean survival time, dose: 100.0 mg/kg/injection, schedule: Q01DX009 (ip), vehicle: Klucel (hydroxypropylcellulose) (HPC)) was 102 % of control and the T/C (endpoint: mean survival time, dose: 200.0 mg/kg/injection, schedule: Q01DX009 (ip), vehicle: Klucel (hydroxypropylcellulose) (HPC)) was 102 % of control.

In the case of `CC(C)C(=O)Nc1nc(OCCc2ccc([N+](=O)[O-])cc2)c2ncn(C3CC(O)C(CO)O3)c2n1` (centres undefined), the T/C (endpoint: median survival time, dose: 12.5 mg/kg/injection, schedule: Q01DX005 (ip), vehicle: saline with Tween-80) is reported as 101 % of control, the T/C (endpoint: median survival time, dose: 25.0 mg/kg/injection, schedule: Q01DX005 (ip), vehicle: saline with Tween-80) is reported as 97 % of control and the T/C (endpoint: median survival time, dose: 50.0 mg/kg/injection, schedule: Q01DX005 (ip), vehicle: saline with Tween-80) is reported as 97 % of control. The T/C (endpoint: median survival time, dose: 100.0 mg/kg/injection, schedule: Q01DX005 (ip), vehicle: saline with Tween-80) was 95 % of control and the T/C (endpoint: median survival time, dose: 200.0 mg/kg/injection, schedule: Q01DX005 (ip), vehicle: saline with Tween-80) was 86 % of control.

With `O=S1CCS(=O)CC1` (centres undefined) the T/C [6] was 96 % of control, the T/C [7] was 93 % of control and the T/C [8] was 98 % of control.

`Cc1ccc(Cl)cc1NC(=O)c1ccc([N+](=O)[O-])cc1` was tested, and the T/C [9] was 90 % of control.

For `BrC(Br)(Br)c1ccc2ccccc2n1`, the T/C [3] was 96 % of control, the T/C [4] was 94 % of control and the T/C [5] was 102 % of control.

`Cn1c(CC(O)(C(F)(F)F)C(F)(F)F)cc(=O)n1-c1ccccc1` was tested, and the T/C [9] was 95 % of control and the T/C [10] was 94 % of control.

`COc1cc(Cc2cnc(NC(C)=O)nc2NC(C)=O)cc(OC)c1OC` was tested, and the T/C [11] was 93 % of control.

With `NC(CS)=NCC12CC3CC(CC(C3)C1)C2` the T/C (endpoint: mean survival time, dose: 12.5 mg/kg/injection, schedule: Q01DX001 (ip), vehicle: Klucel (hydroxypropylcellulose) (HPC)) was 92 % of control, the T/C (endpoint: mean survival time, dose: 25.0 mg/kg/injection, schedule: Q01DX001 (ip), vehicle: Klucel (hydroxypropylcellulose) (HPC)) was 94 % of control and the T/C (endpoint: mean survival time, dose: 50.0 mg/kg/injection, schedule: Q01DX001 (ip), vehicle: Klucel (hydroxypropylcellulose) (HPC)) was 101 % of control.

In the case of `COC(=N)C/C=C/CC(=N)OC`, the T/C [9] is reported as 98 % of control, the T/C [10] is reported as 95 % of control and the T/C [11] is reported as 98 % of control.

For `COc1ccc(OCC(O)CO)cc1` (centres undefined), the T/C [6] was 102 % of control, the T/C [7] was 102 % of control and the T/C [8] was 97 % of control.

In the case of `COc1ccc2c(c1O)CNCC2O` (centres undefined), the T/C [6] is reported as 102 % of control, the T/C [7] is reported as 101 % of control and the T/C [8] is reported as 101 % of control.

In the case of `O=C1C=C(c2ccccc2)C(O)(c2ccccc2)/C1=C/c1ccccc1` (centres undefined), the T/C [1] is reported as 87 % of control and the T/C [2] is reported as 88 % of control.

For `O=[N+]([O-])O.[Cu+2].[NH-]C1CCCCC1[NH-].[NH-]C1CCCCC1[NH-]` (centres undefined), the T/C (endpoint: mean survival time, dose: 12.5 mg/kg/injection, schedule: Q04DX002 (ip), vehicle: saline with Tween-80) was 94 % of control.
